Measured values reported in ChEMBL document CHEMBL1150934, “Cyclic polyketide peroxides and acyclic diol analogues from the sponge Plakortis lita” (J Nat Prod, 1998).
The source made the active and inactive calls. No cut-off for these calls is given here.

Tested on: PO3
Experiment: Antitumor activity in mouse PO3 cells xenografted mouse at 304.5 mg/kg after 31 days
Assay type: functional, organism-based
Set-up: dose 304.5 mg/kg

## CC/C=C/[C@]1(CC)C[C@@H](CC)[C@H](CC(=O)OCC)OO1
  Activity: inactive
